Laboratory results: patent US20160120858A1 (ACADEMIA SINICA, priority 2014, published 2016)
Entries after “also recorded” stand apart in the source; their conditions may differ.

Key:
Shank2^−/− mice = test: Three-chamber social interaction assay, Shank2 mice; type: in vivo, mouse; conditions: 30 mg/kg i.p., 2 hours prior to test
Source text: All mice were backcrossed into a C57BL/6 background, and housed and bred in a mouse vivarium at the Korea Advanced Institute of Science and Technology (KAIST, Shank2^−/−mice) and at Academia Sinica (Tbr1^+/− mice). Pups were kept with the dam until weaning at postnatal day 21. After weaning, animals were group housed in mixed-genotype groups of 3 to 5 mice per cages, and randomly subjected to electrophysiological and behavioral experiments. Animals at 3 to 5 weeks of age were used for electrophysiological experiments; male animals at 2 to 4 months of age were used for behavioral assays. For TFL-Zn staining, male animals at 8 weeks (for Shank2^−/−mice) were used. Wild-type littermates were used as controls.
The injection was performed 2 hours before (Shank2^−/− mice and wild-type littermates), or 3 hours before (Tbr1^+/− mice and wild-type littermates) behavioral assays at the discretion of the facility.
Testing was conducted in dedicated behavioral test rooms during the light phase (three-chamber test) and the dark phase (repetitive behaviors and open field test).
In short, the assay consisted of three phases of 10 minutes duration: habituation, social interaction (Stranger1 vs. Object), and social novelty recognition (Stranger 1 vs. Stranger 2). Exploration was defined as each instance in which wild-type or mutant mouse tries to sniff Object/Stranger, or orients its nose towards and come close to object/stranger. Individual movement tracks were analyzed by Ethovision 10.0 (Noldus) and modified by custom-designed software MatLab (Mathworks) to generate heat maps. Time spent in exploration was analyzed by the researcher who was blinded to the subject genotype (in Shank2 mice), or by using the Smart Video Tracking System (Panlab, in Tbr1 mice). In addition to exploration time, the preference index, which represents a numerical difference between time spent exploring the targets (Stranger1 vs. Object, or Stranger 2 vs. Stranger 1) divided by total time spent exploring both targets, as described previously.
Two hours after CQ treatment, the mice were subjected to a three-chamber social interaction test, which compares the preference of a mouse for a stranger mouse versus a novel inanimate object.

NMDAR = test: NMDA-fEPSP extracellular recordings, hippocampal slices; type: cell-based, mouse; conditions: for NMDAR function (NMDA-fEPSPs) at ZnT3^−/− synapses: ZnT3^−/− hippocampal SC-CA1 synapses
Procedure: For electrophysiological experiments, sagittal hippocampal slices (400 uM thick for extracellular, 300 uM thick for intracellular recordings) of Shank2^−/− mice (or ZnT3^−/− mice) and their wild-type littermates were prepared using a vibratome (Leica VT1200) in ice-cold dissection buffer containing (in mM) 212 sucrose, 25 NaHCO3, 5 KCl, 1.25 NaH2PO4, 0.5 CaCl2, 3.5 MgSO4, 10 D-glucose, 1.25 L-ascorbic acid, and 2 Na-pyruvate bubbled with 95% 02/5% CO2. CA3 was removed to prevent epileptiform activity. Slices were restored for 1 hour in 32° C. in a normal artificial CSF (ACSF) (In units of mM: 124 NaCl, 2.5 kCl, 1 NaH2PO4, 25 NaHCO3, 10 glucose, 2 CaC12, 2 Mg504 oxidized by 95% 02/5% CO2) For the recording, a single slice was moved to and maintained in submerged-type chamber at 28° C., continuously perfused with ACSF (2 mL/minute) saturated with 95% 02/5% CO2. Stimulation and recording pipettes were pulled from borosilicate glass capillaries (Harvard Apparatus) using a micropipette electrode puller (Narishege).
For extracellular recordings, mouse hippocampal slices at the age of postnatal day 21 to 35 were used. Field excitatory postsynaptic potentials (fEPSPs) were recorded in the stratum radiatum of the hippocampal CA1 region using pipettes filled with ACSF (1 MΩ). fEPSP was amplified (Multiclamp 700B, Molecular Devices), and digitized (Digidata 1440A, Molecular
Devices) for measurements. The Schaffer collateral pathway was stimulated every 20 seconds with pipettes filled with ACSF (0.3 to 0.5 MΩ). The stimulation intensity was adjusted to yield a half-maximal response, and three successive responses were averaged and expressed relative to the normalized baseline. To induce LTP, high frequency stimulation (100 Hz, 1 s) was applied after a stable baseline was acquired. […] To isolate NMDAR-mediated fEPSPs, ACSF containing 2 mM calcium, 0.1 mM magnesium, and 6,7-dinitroquinoxaline-2,3-dione (10 uM, DNQX, Tocris), which inhibits AMPAR-mediated EPSPs, were used.

Compound: Oc1c(I)cc(Cl)c2cccnc12 [clioquinol, 5-Chloro-7-Iodo-8-Hydroxyquinoline]
- Social novelty recognition (Shank2^−/− mice; Shank2^−/− (KO) mice): had no effect on social novelty recognition; also recorded: did not affect the social novelty recognition
- Social novelty recognition (Shank2^−/− mice; Shank2^−/− (KO) mice, listed as Clioquinol): has no effect on social novelty recognition
- Social novelty recognition (Shank2^−/− mice; wild-type (WT) mice): had no effect on social novelty recognition; also recorded: did not affect the social novelty recognition
- Social novelty recognition (Shank2^−/− mice; wild-type (WT) mice, listed as Clioquinol): has no effect
- NMDAR function (NMDA-fEPSPs) in the presence of PP3 (NMDAR; CQ 4 uM, 20 minutes): effectively enhances NMDAR function
- NMDAR function (NMDA-fEPSPs) in the presence of Ca-EDTA (NMDAR; CQ 4 uM, 20 minutes, Ca-EDTA 2 mM throughout recordings): fails to enhance NMDAR function
- NMDAR function (NMDA-fEPSPs) in the presence of PP2 (NMDAR; CQ 4 uM, 20 minutes, PP2 10 uM throughout recordings): fails to enhance NMDAR function
- NMDAR function (NMDA-fEPSPs) in the presence of SU6656 (NMDAR; CQ 4 uM, 20 minutes, SU6656 10 uM throughout recordings): fails to enhance NMDAR function
- NMDAR function (NMDA-fEPSPs) in the presence of TPEN (NMDAR; CQ 4 uM, 20 minutes, TPEN 25 uM throughout recordings): fails to enhance NMDAR function
- Initial slopes of NMDA-fEPSPs (NMDAR; Shank2^−/− SC-CA1 synapses, clioquinol for 20 minutes): ~150 % of baseline levels
- NMDAR function (NMDA-fEPSPs) in the presence of cuprizone (NMDAR; WT and KO slices): enhances NMDAR function
- NMDAR function (NMDA-fEPSPs) (NMDAR; WT and Shank2^−/− SC-CA1 synapses, 4 uM, 20 minutes): enhances NMDAR function
- NMDAR function (NMDA-fEPSPs) at ZnT3^−/− synapses (NMDAR): had no effect on NMDAR activity
- NMDAR function (NMDA-fEPSPs) at ZnT3^−/− synapses (NMDAR; listed as CQ): fails to enhance NMDAR function
